From ChEMBL document CHEMBL4715876 (J Med Chem, 2020)
Values after ≈ are worked out from the molar mass of the structure shown.

Legend:
[1] = Cmax in BALB/C mouse at 10 mg/kg,po measured upto 24 hrs by LC-MS analysis; type: ADME, organism-based; parameters: route oral, dose 10 mg/kg, time <= 24; conditions: in vivo
[2] = Cmax in BALB/C mouse at 1 mg/kg, iv measured upto 24 hrs by LC-MS analysis; type: ADME, organism-based; parameters: route intravenous, dose 1 mg/kg, time <= 24; conditions: in vivo
[3] = AUClast in BALB/C mouse at 1 mg/kg, iv measured upto 24 hrs by LC-MS analysis; type: ADME, organism-based; parameters: route intravenous, dose 1 mg/kg, time <= 24; conditions: in vivo
[4] = Tmax in BALB/C mouse at 1 mg/kg, iv measured upto 24 hrs by LC-MS analysis; type: ADME, organism-based; conditions: in vivo
[5] = Volume of distribution at steady state in BALB/C mouse at 1 mg/kg, iv measured upto 24 hrs by LC-MS analysis; type: ADME, organism-based; conditions: in vivo, read-out: Vdss
[6] = AUClast in BALB/C mouse at 10 mg/kg,po measured upto 24 hrs by LC-MS analysis; type: ADME, organism-based; parameters: route oral, dose 10 mg/kg, time <= 24; conditions: in vivo
[7] = Oral bioavailability in BALB/C mouse at 10 mg/kg measured upto 24 hrs by LC-MS analysis; type: ADME, organism-based; conditions: in vivo
[8] = Tmax in BALB/C mouse at 10 mg/kg, po measured upto 24 hrs by LC-MS analysis; type: ADME, organism-based; conditions: in vivo
[9] = Lipophilicity, log D of compound at pH 7.4; type: physicochemical; conditions: buffer
[10] = Solubility of the compound; type: physicochemical
[11] = Oral bioavailability in Beagle dog at 1 mg/kg measured upto 24 hrs by LC-MS/MS analysis; type: ADME, organism-based, Canis lupus familiaris; conditions: in vivo
in vivo = conditions: BALB/C, mouse, po, 30 mg/kg
[12] = Tmax in Sprague-Dawley rat at 3 mg/kg, po measured upto 24 hrs by LC-MS/MS analysis; type: ADME, organism-based; conditions: in vivo
[13] = Tmax in Beagle dog at 1 mg/kg, iv measured upto 24 hrs by LC-MS/MS analysis; type: ADME, organism-based, Canis lupus familiaris; conditions: in vivo
[14] = Cmax in BALB/C mouse at 30 mg/kg,po measured upto 24 hrs by LC-MS analysis; type: ADME, organism-based; parameters: route oral, dose 30 mg/kg, time <= 24; conditions: in vivo
[15] = Cmax in Sprague-Dawley rat at 3 mg/kg, iv measured upto 24 hrs by LC-MS/MS analysis; type: ADME, organism-based; parameters: route intravenous, dose 3 mg/kg, time <=24; conditions: in vivo
[16] = Cmax in Beagle dog at 1 mg/kg, po measured upto 24 hrs by LC-MS/MS analysis; type: ADME, organism-based, Canis lupus familiaris; parameters: route oral, dose 1 mg/kg, time <=24; conditions: in vivo
[17] = Drug uptake in CB.17 SCID mouse tumor xenografted with TMD-8 cells at 3 mg/kg, po once daily for 19 days; type: ADME, organism-based, Neoplasm; conditions: time 19 day, read-out: Drug uptake
[18] = Volume of distribution at steady state in Sprague-Dawley rat at 3 mg/kg, iv measured upto 24 hrs by LC-MS/MS analysis; type: ADME, organism-based; conditions: in vivo, read-out: Vdss
[19] = Tmax in Beagle dog at 1 mg/kg, po measured upto 24 hrs by LC-MS/MS analysis; type: ADME, organism-based, Canis lupus familiaris; conditions: in vivo
[20] = Oral bioavailability in BALB/C mouse at 30 mg/kg measured upto 24 hrs by LC-MS analysis; type: ADME, organism-based; conditions: in vivo
[21] = Tmax in BALB/C mouse at 30 mg/kg, po measured upto 24 hrs by LC-MS analysis; type: ADME, organism-based; conditions: in vivo
[22] = AUClast in BALB/C mouse at 10 mg/kg, iv measured upto 24 hrs by LC-MS analysis; type: ADME, organism-based; parameters: route intravenous, dose 10 mg/kg, time <= 24; conditions: in vivo
[23] = Cmax in Sprague-Dawley rat at 3 mg/kg, po measured upto 24 hrs by LC-MS/MS analysis; type: ADME, organism-based; parameters: route oral, dose 3 mg/kg, time <=24; conditions: in vivo
[24] = Plasma concentration in CB.17 SCID mouse xenografted with OCI-LY10 cells at 3 mg/kg, po once daily for 24 days; type: ADME, organism-based; conditions: time 24 day
[25] = Volume of distribution at steady state in BALB/C mouse at 10 mg/kg, iv measured upto 24 hrs by LC-MS analysis; type: ADME, organism-based; conditions: in vivo, read-out: Vdss
[26] = Plasma concentration in CB.17 SCID mouse xenografted with TMD-8 cells at 3 mg/kg, po once daily for 19 days; type: ADME, organism-based; conditions: time 19 day
[27] = Plasma concentration in CB.17 SCID mouse tumor xenografted with SUDHL-6 cells assessed as effect on body weight at 5 mg/kg, po once daily for 15 days; type: ADME, organism-based; conditions: time 15 day
[28] = Tmax in Sprague-Dawley rat at 3 mg/kg, iv measured upto 24 hrs by LC-MS/MS analysis; type: ADME, organism-based; conditions: in vivo
[29] = Drug uptake in CB.17 SCID mouse tumor xenografted with OCI-LY10 cells at 3 mg/kg, po once daily for 24 days; type: ADME, organism-based, Neoplasm; conditions: time 24 day, read-out: Drug uptake
[30] = Drug uptake in CB.17 SCID mouse tumor xenografted with SUDHL-6 cells assessed as effect on body weight at 5 mg/kg, po once daily for 15 days; type: ADME, organism-based, Neoplasm; conditions: time 15 day, read-out: Drug uptake

Question: Which Cmax [1] does the source give for `Cc1c([C@H](C)Nc2nc(N)nc(N)c2C#N)c(-c2ccccc2)c(=O)n2cc(F)ccc12` here?
Answer: The Cmax was 2100 nM.

Question: And the Cmax [2]?
Answer: Its Cmax is 1300 nM.

Question: What about the AUC(0-t) at 24 h [3] of the same molecule?
Answer: The AUC(0-t) at 24 h was 0.8 µM·h.

Question: What about the Tmax [4] of the same molecule?
Answer: Its Tmax is 4.8 min.

Question: What about the Vd [5] of the same molecule?
Answer: The Vd was 1.7 L/kg.

Question: What about the AUC(0-t) at 24 h [6] of the same molecule?
Answer: Its AUC(0-t) at 24 h is 2.4 µM·h.

Question: And the bioavailability [7]?
Answer: The bioavailability was 30%.

Question: What about the Tmax [8] of the same molecule?
Answer: Its Tmax is 30 min.

Question: For `C[C@H](Nc1nc(N)nc(N)c1C#N)c1cc2ccc(F)cn2c(=O)c1-c1ccccc1`, which Cmax [1] is on record?
Answer: Its Cmax is 2600 nM.

Question: And the Cmax [2]?
Answer: The Cmax was 2300 nM.

Question: And the AUC(0-t) at 24 h [3]?
Answer: The AUC(0-t) at 24 h was 1.6 µM·h.

Question: And the Tmax [4]?
Answer: The Tmax was 4.8 min.

Question: What about the logD [9] of the same molecule?
Answer: Its logD is 1.26.

Question: And the Vd [5]?
Answer: Its Vd is 1.3 L/kg.

Question: What about the AUC(0-t) at 24 h [6] of the same molecule?
Answer: Its AUC(0-t) at 24 h is 3.5 µM·h.

Question: And the bioavailability [7]?
Answer: Its bioavailability is 22%.

Question: And the solubility [10]?
Answer: The solubility was 691 µM (≈ 287 µg/mL).

Question: And the Tmax [8]?
Answer: The Tmax was 30 min.

Question: What does the source list for `CC[C@H](Nc1ncnc2[nH]cnc12)c1nc2cccc(F)c2c(=O)n1-c1ccccc1` [IDELALISIB]?
Answer: bioavailability [11]: 48%; AUC(0-t) at 24 h (in vivo): 9.25 µM·h; Tmax [12]: 180 min; Tmax [13]: 4.8 min; Cmax [14]: 6980 nM; Cmax [15]: 3460 nM; Cmax [16]: 500 nM; concentration at 456 h [17]: 140 nM; Vd [18]: 2.49 L/kg; Tmax [19]: 60 min; bioavailability [20]: 37.6%; Tmax [21]: 15 min; AUC(0-t) at 24 h [22]: 7.43 µM·h; Cmax [23]: 310 nM; concentration at 576 h [24]: 40 nM; Vd [25]: 0.73 L/kg; concentration at 456 h [26]: 20 nM; concentration at 360 h [27]: 30 nM; Tmax [28]: 4.8 min; concentration at 576 h [29]: 150 nM; concentration at 360 h [30]: 80 nM
